# According to ChEMBL document CHEMBL1132042, “Macrocyclic hydroxamate inhibitors of matrix metalloproteinases and TNF-alpha production” (Bioorg Med Chem Lett, 1999):
# Legend:
# Stromelysin-1 = Stromelysin-1 (Homo sapiens, UniProt P08254); test: Inhibition of MMP-3 (human fibroblast stromelysin)
# Interstitial collagenase = target: T1, Interstitial collagenase (Homo sapiens, UniProt P03956); test: Inhibition of MMP-1 (human fibroblast collagenase)
# T1 sequence (P03956 whole entry): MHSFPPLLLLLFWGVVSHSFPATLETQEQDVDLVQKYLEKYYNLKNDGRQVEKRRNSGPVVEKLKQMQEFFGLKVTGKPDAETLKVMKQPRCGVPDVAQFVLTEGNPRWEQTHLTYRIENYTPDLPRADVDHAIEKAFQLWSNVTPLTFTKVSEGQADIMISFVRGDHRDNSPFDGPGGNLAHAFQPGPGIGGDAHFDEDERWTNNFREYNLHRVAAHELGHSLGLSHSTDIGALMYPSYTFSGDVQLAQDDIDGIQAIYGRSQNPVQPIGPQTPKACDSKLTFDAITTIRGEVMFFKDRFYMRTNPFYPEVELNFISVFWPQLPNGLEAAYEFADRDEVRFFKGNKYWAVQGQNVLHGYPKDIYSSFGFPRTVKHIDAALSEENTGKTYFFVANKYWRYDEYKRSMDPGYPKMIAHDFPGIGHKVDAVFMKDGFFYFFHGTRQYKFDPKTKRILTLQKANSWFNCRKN
# [1] = target: Matrix metalloproteinase-9 (Homo sapiens, UniProt P14780); test: Inhibition of MMP-9 (matrix metalloprotease-9, gelatinase B)
# Homo sapiens = organism: Homo sapiens; test: Compound was tested for its ability to suppress the release of TNF-alpha (TNF-WBA) in human whole blood after stimulation with LPS.; type: functional, organism-based
# Chain of Stromelysin-1 (P08254 whole entry): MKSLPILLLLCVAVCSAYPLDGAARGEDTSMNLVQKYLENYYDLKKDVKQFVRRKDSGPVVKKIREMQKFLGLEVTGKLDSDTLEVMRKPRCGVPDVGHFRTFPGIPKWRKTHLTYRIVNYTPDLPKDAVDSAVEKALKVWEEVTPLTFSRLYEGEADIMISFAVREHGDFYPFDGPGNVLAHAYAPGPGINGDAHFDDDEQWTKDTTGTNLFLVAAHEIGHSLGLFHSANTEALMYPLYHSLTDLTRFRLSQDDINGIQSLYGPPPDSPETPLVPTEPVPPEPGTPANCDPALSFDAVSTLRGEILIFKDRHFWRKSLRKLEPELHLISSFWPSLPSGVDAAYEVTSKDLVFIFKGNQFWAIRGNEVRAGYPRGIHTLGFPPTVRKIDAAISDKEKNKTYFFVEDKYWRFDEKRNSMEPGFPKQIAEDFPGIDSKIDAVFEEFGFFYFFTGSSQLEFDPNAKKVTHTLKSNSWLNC
# Chain of Matrix metalloproteinase-9 (P14780 whole entry): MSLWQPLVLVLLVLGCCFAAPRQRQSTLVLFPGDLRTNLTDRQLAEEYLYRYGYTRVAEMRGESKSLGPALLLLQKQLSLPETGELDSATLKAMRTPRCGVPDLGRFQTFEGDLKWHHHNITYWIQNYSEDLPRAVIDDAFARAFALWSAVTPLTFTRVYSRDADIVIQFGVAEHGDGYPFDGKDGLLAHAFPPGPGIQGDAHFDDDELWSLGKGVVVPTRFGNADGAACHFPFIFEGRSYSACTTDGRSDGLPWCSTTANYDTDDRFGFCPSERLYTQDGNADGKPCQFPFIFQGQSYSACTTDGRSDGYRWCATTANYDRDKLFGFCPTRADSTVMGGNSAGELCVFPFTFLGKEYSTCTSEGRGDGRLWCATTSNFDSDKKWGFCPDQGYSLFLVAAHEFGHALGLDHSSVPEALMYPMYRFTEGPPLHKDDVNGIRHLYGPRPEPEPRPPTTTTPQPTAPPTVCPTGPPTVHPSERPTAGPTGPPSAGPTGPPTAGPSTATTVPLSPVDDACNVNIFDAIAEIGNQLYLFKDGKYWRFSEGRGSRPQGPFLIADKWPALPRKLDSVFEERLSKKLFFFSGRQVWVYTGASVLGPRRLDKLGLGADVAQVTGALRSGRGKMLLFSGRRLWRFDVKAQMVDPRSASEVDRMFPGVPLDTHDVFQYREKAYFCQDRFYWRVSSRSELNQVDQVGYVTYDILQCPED
SMILES,Ki (Stromelysin-1),Ki (Interstitial collagenase),Ki [1],IC50 (Homo sapiens)
CNC(=O)[C@@H]1CCCCN(C(=O)OC(C)(C)C)CCC[C@H](C(=O)NO)[C@@H](CC(C)C)C(=O)N1,0.003 µM,< 0.001 µM,< 0.001 µM,1.4 µM
CNC(=O)[C@@H]1CCCCN(S(=O)(=O)c2ccc(N)cc2)CCC[C@H](C(=O)NO)[C@@H](CC(C)C)C(=O)N1,0.099 µM,< 0.001 µM,0.0016 µM,0.95 µM
CNC(=O)[C@@H]1CCCCNCCC[C@H](C(=O)NO)[C@@H](CC(C)C)C(=O)N1,–,< 0.001 µM,0.0128 µM,2.7 µM
CNC(=O)[C@@H]1CCCCN(S(=O)(=O)C(F)(F)F)CCC[C@H](C(=O)NO)[C@@H](CC(C)C)C(=O)N1,0.118 µM,0.004 µM,< 0.001 µM,1.3 µM
CNC(=O)[C@@H]1CCCCN(S(=O)(=O)c2ccccc2)CCC[C@H](C(=O)NO)[C@@H](CC(C)C)C(=O)N1,0.0034 µM,< 0.001 µM,< 0.001 µM,1.3 µM

# Next, values leading:
Ki (Stromelysin-1),Ki (Interstitial collagenase),Ki [1],IC50 (Homo sapiens),SMILES
0.015 µM,0.0023 µM,< 0.001 µM,1.6 µM,CNC(=O)[C@@H]1CCCCN(S(=O)(=O)c2c(C)cc(C)cc2C)CCC[C@H](C(=O)NO)[C@@H](CC(C)C)C(=O)N1
0.012 µM,< 0.001 µM,0.0027 µM,1.4 µM,CNC(=O)[C@@H]1CCCCN(S(=O)(=O)c2cn(C)cn2)CCC[C@H](C(=O)NO)[C@@H](CC(C)C)C(=O)N1
